Counter-ions that a name gives are not always drawn.
Experiments:
[1] = test system: acute myocardial infarction in rats; assay: Acute myocardial infarction in rats by coronary artery (LAD) ligature: myocardial infarction rate (MIR); format: in vivo, SD male rats; details: intragastric pre-administration 7 d (Y 4.5, G 115, F 84 mg/kg)
Text: (§1) SD male rats, weighing 340˜360 g, were purchased from Beijing Weitonglihua Experimental Animal Co., Ltd, and certification No.: SCXK (Jing) 2007-0001.
(§2) Grouping: the rats were randomly divided into groups according to their body weight: S group (Sham operation group), M group (Model group), Y group (Positive control group, metoprolol tartrate, Lot No. 1201039), F group (CSMDP of the present invention) and G group (CSDP available in China, Lot No. 2011L16); 10 rats in each group.
On the 8th day, the rats were anesthetized intraperitoneally with 10% chloral hydrate (3 ml/kg) and fixed on a small wood plate in a supine position. Pins were inserted under the skin of the right forelimb and both hind limbs, and then the rats were connected with the MedLab-U/8c bio-signals collecting-processing system to record ECG of the rats. Hair on the front wall of the left chest was clipped. Oral tracheal cannula was performed and the animal respirator was connected at a respiratory frequency of 80 breaths/min, tidal volume 3 ml/100 g and I:E=1:1. Chest on the left front chest lateral side was incised to cut the 3′ rib and the pericardium was carefully lifted with forceps to tear apart. […] ECG was recorded continuously for 4 hours. […]

[2] = test system: heart rate in rats with myocardial infarction; assay: Heart rate (ECG) in rats with myocardial infarction after ligation; format: in vivo, SD male rats; details: 7 d pre-administration
Text: as §1, §2
On the 8th day, the rats were anesthetized intraperitoneally with 10% chloral hydrate (3 ml/kg) and fixed on a small wood plate in a supine position. Pins were inserted under the skin of the right forelimb and both hind limbs, and then the rats were connected with the MedLab-U/8c bio-signals collecting-processing system to record ECG of the rats. Hair on the front wall of the left chest was clipped. Oral tracheal cannula was performed and the animal respirator was connected at a respiratory frequency of 80 breaths/min, tidal volume 3 ml/100 g and I:E=1:1. Chest on the left front chest lateral side was incised to cut the 3′ rib and the pericardium was carefully lifted with forceps to tear apart. […] Medical suture (4-0) was used to transfix LAD and a small amount of myocardial tissue at a distance of about 1˜2 mm from the lower edge of the left atrial appendage and inside interventricular sulcus in the vicinity of the left main trunk of coronary vein. The rats with an elevated J point by 0.1 mV in ECG and pale LVAW (left ventricular anterior wall) indicated a successful modeling. Chest was closed layer by layer. The tracheal tube was removed until the voluntary respiration was recovered in the rats. ECG was recorded continuously for 4 hours.

COCCc1ccc(OCC(O)CNC(C)C)cc1 (stereo not drawn) [Y group, metoprolol tartrate]
Average wet weight of the infarction region ([1]; LAD ligation on 8th day, heart taken after 4 h ECG): 0.0233 ± 0.0038 g | MIR (myocardial infarction rate = wet weight of the infarction region/wet weight of the whole heart x 100%) ([1]; LAD ligation, model group 5.07 ± 0.75): 2.65 ± 0.33 % | heart rate ([2]; 0 s after ligation): 377 ± 48 beat/min | heart rate ([2]; 5 s after ligation): 423 ± 39 beat/min | heart rate ([2]; 10 s after ligation): 419 ± 41 beat/min | heart rate ([2]; 5 min after ligation): 424 ± 29 beat/min | heart rate ([2]; 10 min after ligation): 431 ± 17 beat/min | heart rate ([2]; 30 min after ligation): 413 ± 34 beat/min | heart rate ([2]; 1 h after ligation): 421 ± 47 beat/min | heart rate ([2]; 2 h after ligation): 416 ± 33 beat/min | heart rate ([2]; 3 h after ligation): 380 ± 66 beat/min | heart rate ([2]; 4 h after ligation): 395 ± 52 beat/min

Reference: US11013694B2, “Formulation of a micro drop pill and the preparation method thereof” (TASLY PHARMACEUTICAL GROUP CO., LTD., priority 2013, dated 2021)
